{"source": "paper PMC3898925", "about": "(Journal of Molecular Biology, 2010)", "molecules": {"B1": {"name": "SeMet-labelled WsaF from Geobacillus stearothermophilus NRS 2004/3a (enzyme)", "chain": "MLQKLIQILRRNEYVKNVYKNTVSNFIETSIPEITPFNARTSSIKGKRLNLLVPSINQEHMFGGISTALKLFEQFDNKKFKKRIILTDATPNPKDLQSFKSFKYVMPEEDKDFALQIVPFNDRYNRTIPVAKHDIFIATAWWTAYAAQRIVSWQSDTYGIPPNKILYIIQDFEPGFYQWSSQYVLAESTYKYRGPQIAVFNSELLKQYFNNKGYNFTDEYFFQPKINTTLKNYINDKRQKEKIILVYGRPSVKRNAFTLIVEALKIFVQKYDRSNEWKIISVGEKHKDIALGKGIHLNSLGKLTLEDYADLLKRSSIGISLMISPHPSYPPLEMAHFGLRVITNKYENKDLSNWHSNIVSLEQLNPENIAETLVELCMSFNNRDVDKKESSNMMFYINEFNEFSFIKEIEEKL", "modifications": "selenomethionine (SeMet)-labelled", "notes": "WsaF, beta-1,2-rhamnosyltransferase of Geobacillus stearothermophilus NRS 2004/3a; the structure is described from M1 to L413 (M1-N25, Q58-G63 and N382-E389 with poor or no density); also called SeMet variant WsaF; SeMet-WsaF; source: E. coli BL21(DE3) Star, purified to homogeneity"}}, "key": {"WsaF [1]": {"target": "T1, WsaF (Geobacillus stearothermophilus, UniProt Q7BG50, K78A/K79A/K81A)", "T1 construct": "recombinant WsaF from pET28a-WsaF in E. coli BL21(DE3) Star; residues M1 to L413 mentioned", "T1 sequence (Q7BG50 entry or part of it K78A/K79A/K81A)": "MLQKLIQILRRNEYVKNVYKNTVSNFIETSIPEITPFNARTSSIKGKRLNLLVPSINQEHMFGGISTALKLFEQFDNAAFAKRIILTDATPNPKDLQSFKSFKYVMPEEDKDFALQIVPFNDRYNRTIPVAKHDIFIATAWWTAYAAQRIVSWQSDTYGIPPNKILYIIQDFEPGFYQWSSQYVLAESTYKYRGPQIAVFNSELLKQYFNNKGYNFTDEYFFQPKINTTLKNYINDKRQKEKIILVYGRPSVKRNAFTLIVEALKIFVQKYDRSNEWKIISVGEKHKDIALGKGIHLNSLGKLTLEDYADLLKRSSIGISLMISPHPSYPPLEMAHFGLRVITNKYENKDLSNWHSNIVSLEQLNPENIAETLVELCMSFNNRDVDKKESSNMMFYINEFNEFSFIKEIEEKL", "experiment": "X-ray crystal structure of soaked complex, […] Å", "format": "binding", "details": "crystal soaked 5 min in 20 mM dTDP-β-L-Rha; WsaFSER2 (b48 prints K78A/E79A/K81A); authors regard rhamnose ring position as incorrect"}, "WsaF [2]": {"target": "T1, WsaF", "experiment": "X-ray crystal structure of soaked complex, […] Å", "format": "binding", "details": "crystal soaked 5 min in 25 mM dTDP; surface entropy reduction mutant WsaFSER2 (b48 prints K78A/E79A/K81A)"}, "WsaF [3]": {"target": "T2, WsaF (Geobacillus stearothermophilus, UniProt Q7BG50)", "T2 construct": "recombinant WsaF from pET28a-WsaF in E. coli BL21(DE3) Star; residues M1 to L413 mentioned", "T2 sequence (Q7BG50 1-413)": "B1 chain", "experiment": "isothermal titration calorimetry", "format": "binding", "details": "20 mM NaP pH 8.5, 50 mM NaCl, 20 °C; one-site model"}, "WsaF [4]": {"target": "T3, WsaF (Geobacillus stearothermophilus, UniProt Q7BG50, R254A)", "T3 construct": "recombinant WsaF from pET28a-WsaF in E. coli BL21(DE3) Star; residues M1 to L413 mentioned", "T3 sequence (Q7BG50 entry or part of it R254A)": "as the sequence (Q7BG50 entry or part of it K78A/K79A/K81A) above, with A78K, A79K, A81K, R254A counted along it", "experiment": "isothermal titration calorimetry", "format": "binding", "details": "20 mM NaP pH 8.5, 50 mM NaCl, 20 °C; one-site model"}, "WsaF [5]": {"target": "T4, WsaF (Geobacillus stearothermophilus, UniProt Q7BG50, E333A)", "T4 construct": "recombinant WsaF from pET28a-WsaF in E. coli BL21(DE3) Star; residues M1 to L413 mentioned", "T4 sequence (Q7BG50 entry or part of it E333A)": "as the sequence (Q7BG50 entry or part of it K78A/K79A/K81A) above, with A78K, A79K, A81K, E333A counted along it", "experiment": "isothermal titration calorimetry", "format": "binding", "details": "20 mM NaP pH 8.5, 50 mM NaCl, 20 °C; one-site model"}, "[6]": {"target": "the molecule itself", "experiment": "crystal structure; SeMet-labelled WsaF, space group P2_(1), two molecules in the asymmetric unit, 2.28 Å"}}}
{"molecule": "Cc1cn([C@H]2C[C@H](O)[C@@H](COP(=O)(O)OP(=O)(O)O[C@H]3O[C@@H](C)[C@H](O)[C@@H](O)[C@H]3O)O2)c(=O)[nH]c1=O", "note": "[dTDP-β-L-rhamnose]", "values": [{"measurement": "X-ray crystal structure of soaked complex, 2.55 Å", "setting": "WsaF [1]", "result": "The structures of the dTDP-WsaFSER2 and dTDP-β-L-Rha-WsaFSER2 complexes were obtained by soaking"}]}
{"molecule": "Cc1cn([C@H]2C[C@H](O)[C@@H](COP(=O)(O)OP(=O)(O)O)O2)c(=O)[nH]c1=O", "note": "[dTDP]", "values": [{"measurement": "X-ray crystal structure of soaked complex, 2.81 Å", "setting": "WsaF [2]", "result": "The structures of the dTDP-WsaFSER2 and dTDP-β-L-Rha-WsaFSER2 complexes were obtained by soaking"}, {"measurement": "isothermal titration calorimetry", "setting": "WsaF [3]", "result": "showed weaker dTDP binding than native WsaF, when qualitatively comparing the curves (Fig. S3)"}, {"measurement": "isothermal titration calorimetry", "setting": "WsaF [4]", "result": "(ITC) of E333A and R254A showed weaker dTDP binding than native WsaF"}, {"measurement": "isothermal titration calorimetry", "setting": "WsaF [5]", "result": "The mutant E333A showed a reduced binding affinity for dTDP"}]}
{"molecule": "B1", "values": [{"measurement": "stoichiometry N", "setting": "[6]", "result": 2}]}
